Experiments:
[1] = assay type: physicochemical
Experimental: Both samples were maintained at 75% RH at 40° C. and monitored by HPLC at time points t=1 h, 3 h, 24 h, 48 h, 7 d, 2 w, 3 w, 4 w and 5 w.
Under the conditions evaluated during this study, XRPD analysis could not be performed as compound 1 Fumarate turned to an oily residue within 3 h under both conditions.
[…] Both samples were maintained under equilibrium humidity of 75% RH at 40° C. and monitored, initially at hourly and then weekly time points.

[2] = Thermocycling of compound 1 Fumarate; settings: computed by software from the powder pattern
Experimental: Thermocycling in different solvents can promote the formation of alternative polymorphic forms. compound 1·Fumarate was heated and cooled between 20° C. and 75% of the relevant solvent b.p. at 0.5° C./minute, for 5 consecutive cycles; a 10-minute dwell was incorporated at each inflection (refer to Table 63). Thermocycling is ripening technique that encourages particle size enlargement and promotes the evolution of the API into a stable phase. […] The products were analysed both wet and dry to determine if form changes had occurred, all products were consistent with monofumarate Form A (refer to FIGS. 16-19 and FIGS. 88-102).
Compound 1 Fumarate (75 mg, 1 wt) was weighed out in to 4 separate vials and the corresponding solvents (750 ul, 10 vol) from Table were charged.
The suspensions underwent constant amplitude thermocycling at ±0.5° C./min up to 75% of the relevant solvent b.p. and −0.5° C./min down to 20° C. The thermocycle was repeated 5 times (FIGS. 16-19 and 88-102).

[3] = thermocycling in MEK/Heptane (1 to 1)
[4] = thermocycling in Toluene 100.0%

Compound: COc1ccc2c(ccn2C[C@@H](C)[NH+](C)C)c1.O=C(O)/C=C/C(=O)O [Compound 1 fumarate, (R)-1-(5-methoxy-1H-indol-1-yl)-N,N-dimethylpropan-2-amine fumarate]
- Decrease of chemical purity ([1]; 75% RH/40° C., 5 week time point): approximately 2 % area
- Stability of the amorphous phase ([1]; 75% RH/40° C., 5 weeks): good stability
- Time to turn to an oily residue ([1]; 75% RH/40° C., both conditions (open vial and double bagged)): ≤ 3 h
- Preliminary stability evaluation (hydrate formation or degradation) ([1]; several weeks at 40° C./75% RH): no evidence for hydrate formation or degradation
- XRPD crystallinity (dry, %) [2, 3]: 83.2%
- XRPD crystallinity (wet, %) [2, 3]: 83.4%
- XRPD crystallinity (dry, %) [2, 4]: 68.1%
- XRPD crystallinity (wet, %) [2, 4]: 52.4%
- XRPD crystallinity (dry, %) ([2]; thermocycling in iPAC 100.0%): 82.7%
- XRPD crystallinity (wet, %) ([2]; thermocycling in iPAC 100.0%): 80.7%
- XRPD crystallinity (dry, %) ([2]; thermocycling in tBME 100.0%): 81.0%
- XRPD crystallinity (wet, %) ([2]; thermocycling in tBME 100.0%): 79.0%

Reference: US12319652B2, “Salts and solid forms of (R)-1-(5-methoxy-1H-indol-1-yl)-N,N-dimethylpropan-2-amine” (priority 2021, dated 2025)
